Data published in patent US12029818B2 (CRITITECH, INC., priority 2020, dated 2024).

Assays:
[1] = Particle size distribution (PSD) by laser diffraction, Malvern Mastersizer 3000; format: physicochemical
Protocol: PSD analyses were conducted on a Malvern Mastersizer™ 3000 using the Aero S™ dispersion unit according to manufacturer's instructions.

[2] = Shake-flask solubility in organic solvent/water mixtures; format: physicochemical; details: methanol and ethanol in water
Protocol: The drug was added in excess to each solution prepared in duplicate.

[3] = Specific surface area by BET sorptometry
Protocol: SSA determination analyses were conducted on a Porous Materials, Inc., Automated BET Sorptometer BET-202A according to manufacturer's instructions.

[4] = PXRD solid form and 14 day room temperature stability study

CS(=O)(=O)CCNCc1ccc(-c2ccc3ncnc(Nc4ccc(OCc5cccc(F)c5)c(Cl)c4)c3c2)o1 [Lapatinib, N-(3-chloro-4-{[(3-fluorophenyl)methyl]oxy}phenyl)-6-[5-({[2-(methylsulfonyl)ethyl]amino}methyl)-2-furanyl]-4-quinazolinamine]
PSD: Volume Dv-10 [1]: 0.839 μm
PSD: Volume Dv-50 [1]: 6.59 μm
PSD: Volume Dv-90 [1]: 335 μm
Solubility dependence on organic solvent concentration [2]: concentration dependent solubility
SSA ([3]; listed as Lapatinib Raw): 2.33 m^2/g
SSA ([3]; listed as unprocessed material): 1.60 m^2/g
Crystalline/amorphous form by PXRD [4]: crystalline
